Data on 19 compounds can be found in PubChem BioAssay (NCI).

Several values for one entry are separate records, joined by “and”; a condition that tells them apart may be missing. Identical values can stand only once.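 Protocol summary: plate cells (96-well), add compound at 5 concentrations, incubate 48 h, interpolate endpoints linearly. At the GI50, growth is halved. TGI denotes the concentration required for complete inhibition of growth.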

Test in all cases: NCI tumour cell line growth inhibition, 48 h
Test [1] concerns EKVX NSCLC.
For test [2], the system named is HCT-15 colon.
The test system of test [3] is HL-60(TB) leukemia.
Test [4] deals with HOP-62 NSCLC.
Test [5] deals with MOLT-4 leukemia.
The subject of test [6] is NCI-H460 lung.
Test [7] concerns OVCAR-5 ovarian.
The test system of test [8] is RXF 393 renal.
For test [9], the system named is SK-MEL-2 melanoma.
For test [10], the system named is SNB-75 CNS.

With `CCOC(=O)Oc1c(OC)cc(C(=O)O[C@@H]2C[C@@H]3CN4CCc5c([nH]c6cc(OC)ccc56)[C@H]4C[C@@H]3[C@H](C(=O)OC)[C@H]2OC)cc1OC`, the GI50 is 5.78 µM in test [1]; 2.86 µM in test [2]; 3.64 µM in test [3]; 11.7 µM in test [4]; 4.04 µM in [5]; 3.8 µM in test [6]. Moreover, the GI50 in test [7] was 18 µM; in test [8], 5.03 µM; in test [9], 12.1 µM; in test [10], 6.64 µM. Moreover, the TGI was 35.9 µM in test [1]; 13.2 µM in [2]; 15.1 µM in test [3]; 25.2 µM in [4]; 23.3 µM in test [5]; 16.6 µM in test [6]. The TGI worked out at 48.1 µM in test [7], 19.1 µM in test [8], 28.3 µM in test [9] and 24.5 µM in test [10].
On to `O=C1c2ccccc2-c2c1c1ccccc1c(=O)n2CCCN1CCOCC1`, for which the GI50 in [1] is 22.7 µM; in test [2], 21.8 µM; in test [3], 24.9 µM; in test [4] it was 6.22 µM; in test [5], 8.11 µM; in test [6] it was 20 µM. Moreover, the GI50 in test [7] was 35.9 µM; in test [8], 6.21 µM; in test [9] it was 19.5 µM; in [10] it was 2.98 µM. Also, the TGI in test [1] is 76.4 µM; in test [2], more than 100 µM; in test [3], more than 100 µM; in test [4], 18.7 µM; in [5], more than 100 µM; in test [6] it was more than 100 µM. The TGI is more than 100 µM in [7], 24.3 µM in [8], 50.7 µM in test [9] and more than 27.7 µM in test [10].
As to `Cc1ccc2c(=O)c3cccc(CC(=O)O)c3oc2c1C`, the GI50 in test [1], in test [2], in test [3], in test [4], in test [5] and in test [6] was more than 100 µM each time. For the same compound, the GI50 in test [7], in test [8], in test [9] and in test [10] was more than 100 µM in each case. Besides, the TGI in test [1], in [2], in [3], in [4], in [5] and in test [6] was more than 100 µM throughout. In addition, the TGI in test [7], in test [8], in test [9] and in [10] was more than 100 µM each time.
On to `CCOC(CN=c1nc(N(C)C)ss1)OCC`, for which the TGI in test [1] is more than 80 µM; in [2] it was 42.8 µM; in test [3] it was 12 µM; in [4], more than 100 µM; in test [5], 25.4 µM; in [6] it was more than 94.4 µM. In addition, the TGI was found to be 44.1 µM in test [7], 37.3 µM in test [8], 48.9 µM in [9] and 78.4 µM in [10].
With `Cc1ccc2c(N)c(C(=O)N[C@H]3CCc4cc(N5CC6CCC(C5)N6)ccc4C3)sc2n1`, the GI50 in test [1] was 0.572 µM; in test [2], 0.34 µM; in test [3] it was 0.172 µM; in test [4], 0.291 µM; in test [5], 0.174 µM; in [6] it was 0.152 µM. Moreover, the GI50 was 0.47 µM in test [7], 0.217 µM in test [8], 0.44 µM in [9] and 0.355 µM in test [10]. Also, the TGI was 2.34 µM in test [1]; 2.36 µM in [2]; 1.31 µM in test [3]; 2.36 µM in test [4]; 4.49 µM in test [5]; 1.43 µM in test [6]. The TGI was 3 µM in [7], 0.686 µM in [8], 1.29 µM in test [9] and 2.83 µM in [10].
Consider `O=[N+]([O-])/C=C/c1c[nH]c2ccccc12`, for which the GI50 in test [1] was 19.3 µM; in [2] it was 18.2 µM; in test [3] it was 6.5 µM; in test [4] it was 21.4 µM; in test [5], 13.9 µM; in test [6], 17 µM. For the same compound, the GI50 is 17.8 µM in test [7], 19.5 µM in test [8], 18.6 µM in test [9] and 4.45 µM in test [10]. The TGI turned out to be 45.1 µM in [1]; 45.7 µM in test [2]; 25 µM in test [3]; 36.5 µM in [4]; 35.5 µM in test [5]; 46.3 µM in test [6]. The TGI in [7] was 35.2 µM; in test [8], 35.1 µM; in test [9], 37.8 µM; in test [10], 16.3 µM.
Regarding `C/C=C(\C)C(=O)O[C@H]1C=CC(=O)O[C@H]1CNC(=O)[C@H](C)O`, the GI50 in test [1] is 26.2 µM; in [2], 15.6 µM; in [3], 16.8 µM; in test [4] it was 23.9 µM; in [5] it was 21.4 µM; in [6] it was 28.2 µM. For the same compound, the GI50 in [7] was 19.9 µM; in [8], 19.3 µM; in [9] it was 20.1 µM; in [10], 22.3 µM. Further, the TGI in [1] stood at 67.4 µM; in test [2] it was 32 µM; in [3] it was 39.3 µM; in [4], 54 µM; in test [5] it was 46.6 µM; in test [6] it was 94.2 µM. The TGI in [7] is 38.3 µM; in test [8], 40.1 µM; in [9], 51 µM; in [10] it was 48.8 µM.
Regarding `Cc1c2cc[nH]c(=O)c2cc2c(=O)c3cnccc3[nH]c12`, the TGI in test [1], in [2], in test [3], in test [4], in [5] and in test [6] was more than 100 µM in each case. For the same compound, the TGI in test [7], in test [8], in test [9] and in [10] was more than 100 µM each time.
For the compound `COc1ccc(-c2nc(-c3cn(C)c4ncccc34)cs2)cc1`, the GI50 in [1] was 17.4 µM; in test [2], 25.3 µM; in test [3] it was 9.11 µM; in [4] it was more than 100 µM; in test [5], 18.9 µM; in [6], 32.9 µM. Further, the GI50 is more than 100 µM in test [7], 55.2 µM in [8], 55.3 µM in test [9] and more than 100 µM in [10]. For the same compound, the TGI in [1], in test [2], in test [3], in test [4], in [5] and in test [6] was more than 100 µM in each case. Further, the TGI in test [7], in test [8], in test [9] and in test [10] was more than 100 µM in each case.
`CCOC(=O)C(C)c1cc(C2(C)OCCO2)c(C)o1` (stereo not drawn): the TGI in test [1], in test [2], in [3], in test [4], in test [5] and in test [6] was more than 100 µM throughout. Moreover, the TGI in test [7], in test [8], in [9] and in test [10] was more than 100 µM in each case.
As to `Cn1c(=O)c2[nH]c(CS(=O)(=O)Cc3nc4c([nH]3)c(=O)n(C)c(=O)n4C)nc2n(C)c1=O`, the TGI in test [1], in test [2], in [3], in [4], in test [5] and in test [6] was more than 100 µM throughout. For the same compound, the TGI in test [7], in test [8], in test [9] and in [10] was more than 100 µM in each case.
With `Cc1[nH]c(/C=C2\C(=O)Nc3ccc(F)cc32)c(C)c1C(=O)NC[C@H](O)CN1CCOCC1`, the GI50 in test [1] is 8.02 µM; in test [2] it was 2.83 µM; in test [3], 1.03 µM; in test [4], 4.41 µM; in [5] it was 2.61 µM; in test [6] it was 2.39 µM. The GI50 was 2.85 µM in test [7], 2.33 µM in test [8], 2.16 µM in test [9] and 7.33 µM in test [10]. The TGI in test [1] is more than 10 µM; in [2] it was more than 10 µM; in test [3] it was 5.43 µM; in test [4], more than 10 µM; in [5], more than 10 µM; in test [6], more than 10 µM. The TGI is more than 10 µM in test [7], more than 10 µM in test [8], 8.68 µM in test [9] and more than 10 µM in [10].
For `O=C(O)C12C3CCCC1C2CC3` (stereo not drawn), the TGI in test [1], in [2], in [3], in [4], in test [5] and in test [6] was more than 100 µM throughout. Besides, the TGI in [7], in test [8], in test [9] and in test [10] was more than 100 µM in each case.
In the case of `COc1ccc(-c2cn[nH]c2-c2cc(OC)c(OC)c(OC)c2)cc1N`, the GI50 in [1] was < 0.01 µM and 0.0673 µM; in test [2], < 0.01 µM and 0.0298 µM; in test [3], < 0.01 µM and 0.0248 µM; in [4] it was < 0.01 µM and 0.0766 µM; in [5] it was < 0.01 µM and 0.0429 µM; in test [6] it was < 0.01 µM and 0.0343 µM. Moreover, the GI50 in test [8] was 0.0247 µM; in test [10] it was less than 0.01 µM. For the same compound, the TGI in test [1] was more than 100 µM; in [2], more than 100 µM; in test [3], < 0.01 µM and 0.0834 µM; in test [4], more than 100 µM; in test [5], more than 100 µM; in test [6], 13.3 µM and > 38.5 µM. Besides, the TGI in test [7], in [8], in test [9] and in test [10] was more than 100 µM each time.
On to `COC(=O)c1c(CC#N)cccc1CC#N`, for which the TGI in test [1], in test [2], in test [3], in test [4], in test [5] and in test [6] was more than 100 µM each time. For the same compound, the TGI in test [7], in [8], in test [9] and in [10] was more than 100 µM each time.
Turning to `Nc1c(-c2nc3ccccc3[nH]2)sc(=S)n1-c1ccccc1`, the TGI was more than 100 µM in [1]; more than 100 µM in test [2]; more than 100 µM in test [3]; more than 100 µM in test [4]; 45.8 µM in test [5]; more than 100 µM in test [6]. Moreover, the TGI in [7], in test [8], in [9] and in [10] was more than 100 µM throughout.
For `COc1c(O)ccc2c1CN1CCc3cc4c(cc3C1C2)OCO4` (stereo not drawn), the TGI in test [1] is more than 100 µM; in test [2] it was more than 100 µM; in test [3], more than 100 µM; in [4], more than 100 µM; in test [5] it was more than 100 µM; in test [6], more than 74.7 µM. Moreover, the TGI is more than 100 µM in test [7], 50.6 µM in test [8], more than 92.9 µM in test [9] and 65.3 µM in test [10].
As for `CC(=O)N1c2ccccc2Sc2cc(C(O)(C(F)(F)F)C(F)(F)F)ccc21`, the TGI in test [1], in test [2], in test [3], in test [4], in [5] and in [6] was more than 10 µM in each case. The TGI in test [7], in test [8], in test [9] and in [10] was more than 10 µM each time.
On to `O=C1CCC2(C=C(Br)C(=O)C(Br)=C2)O1`, for which the GI50 in test [1] is 5.29 µM; in [2], 2.77 µM; in test [3], 1.4 µM; in [4] it was 20.8 µM; in test [5], 3.46 µM; in test [6] it was 19.6 µM. Further, the GI50 was 15 µM in test [7], 2.82 µM in [8], 15 µM in test [9] and 13.2 µM in test [10]. The TGI in test [1] is 12.6 µM; in [2], 8.76 µM; in test [3] it was 6.18 µM; in test [4] it was 39.8 µM; in test [5] it was more than 23 µM; in test [6], 38.6 µM. For the same compound, the TGI came out at 29.7 µM in test [7], 6.96 µM in test [8], 30.3 µM in test [9] and 26 µM in test [10].
